15 compounds from PubChem BioAssay AID190 (DTP/NCI, 2004) can be followed below.

The subject of the experiment is AKR/Lw mice, AKR lymphoma ip, median survival T/C. Put plainly: NCI In Vivo Anticancer Drug Screen. Data for tumor model Lymphoma AKR (Transplanted) (intraperitoneal) in AKR/Lw mice. The note with it: endpoint: median survival time, higher = longer survival. How it is done:
The antitumor activity of compounds was measured in mice bearing transplantable tumors. Survival or tumor size were measured and the results are expressed as the measurement made in the treated group (T) divided by the measurement made in the vehicle treated control group (C). The tumor model used in this assay is Lymphoma AKR (Transplanted) (intraperitoneal) in AKR/Lw mice

Setting [1] is: dose: 100.0 mg/kg/injection, schedule: Q01DX001 (ip), vehicle: Klucel (hydroxypropylcellulose) (HPC).
Where [2] appears, read: dose: 25.0 mg/kg/injection, schedule: Q04DX003 (ip), vehicle: saline.
Where [3] appears, read: dose: 100.0 mg/kg/injection, schedule: Q01DX001 (ip), vehicle: saline.
[4] abbreviates: dose: 100.0 mg/kg/injection, schedule: Q01DX001 (ip), vehicle: saline with Tween-80.
Where [5] appears, read: dose: 200.0 mg/kg/injection, schedule: Q01DX001 (ip), vehicle: saline with Tween-80.
Setting [6] is: dose: 200.0 mg/kg/injection, schedule: Q01DX001 (ip), vehicle: saline.
Setting [7] is: dose: 400.0 mg/kg/injection, schedule: Q01DX001 (ip), vehicle: saline.
The mark [8] stands for this setting: dose: 100.0 mg/kg/injection, schedule: Q04DX003 (ip), vehicle: Klucel (hydroxypropylcellulose) (HPC).
Where [9] appears, read: dose: 200.0 mg/kg/injection, schedule: Q01DX001 (ip), vehicle: Klucel (hydroxypropylcellulose) (HPC).
The mark [10] stands for this setting: dose: 200.0 mg/kg/injection, schedule: Q04DX003 (ip), vehicle: Klucel (hydroxypropylcellulose) (HPC).
Setting [11] is: dose: 400.0 mg/kg/injection, schedule: Q01DX001 (ip), vehicle: Klucel (hydroxypropylcellulose) (HPC).
Where [12] appears, read: dose: 400.0 mg/kg/injection, schedule: Q04DX003 (ip), vehicle: Klucel (hydroxypropylcellulose) (HPC).

Several values for one entry are separate records, joined by “and”; a condition that tells them apart may be missing. Equal values may be shown once. Inconclusive results and toxic doses are left out. Numbered stars: 1 amine (or outer) side, 2 acyl side, 3 side chain; on linkers, the order of the positions; unused ones are H or OH. Bridge positions count the residues as written; N and C are the ends. Square brackets hold non-standard residues; d marks the D form. Peptide text beside a SMILES is read from it. I, II: the chains in the order shown. Actinocin(9to1) = Cc1c2oc3c(C)ccc(C(=O)[*:1])c3nc-2c(C(=O)[*:2])c(N)c1=O; aThr = C[C@H](O)[C@H](N)C(=O)O; NMeV = CN[C@H](C(=O)O)C(C)C; Sar = CNCC(=O)O

On to `COc1cc2c(cc1OC)C13CCN4CC5=CCOC6CC(=O)N2C1C6C5CC43` (stereo not drawn) (tested in a mixture with another compound), for which the T/C by setting is: (dose: 45.0 mg/kg/injection, schedule: Q01DX001 (ip), vehicle: Klucel (hydroxypropylcellulose) (HPC)) 100 % of control; (dose: 65.0 mg/kg/injection, schedule: Q01DX001 (ip), vehicle: Klucel (hydroxypropylcellulose) (HPC)) 100 % of control; under setting [1], 106 % of control and 108 % of control; (dose: 150.0 mg/kg/injection, schedule: Q01DX001 (ip), vehicle: Klucel (hydroxypropylcellulose) (HPC)) 100 % of control.
Regarding `O=C[C@@H](CO)O[C@H](C=O)n1cnc2c(=O)[nH]cnc21`, the T/C was 104 % of control and 123 % of control (dose: 3.0 mg/kg/injection, schedule: Q01DX009 (ip), vehicle: saline); 102 % of control and 108 % of control and 121 % of control (dose: 6.0 mg/kg/injection, schedule: Q01DX009 (ip), vehicle: saline); 102 % of control (dose: 6.2 mg/kg/injection, schedule: Q04DX003 (ip), vehicle: saline); 112 % of control (dose: 6.25 mg/kg/injection, schedule: Q01DX009 (ip), vehicle: saline); 100 % of control and 112 % of control (dose: 12.0 mg/kg/injection, schedule: Q01DX009 (ip), vehicle: saline); 94 % of control and 106 % of control (dose: 12.5 mg/kg/injection, schedule: Q01DX009 (ip), vehicle: saline). The T/C is, setting by setting: (dose: 12.5 mg/kg/injection, schedule: Q04DX003 (ip), vehicle: saline) 100 % of control and 105 % of control; (dose: 24.0 mg/kg/injection, schedule: Q01DX009 (ip), vehicle: saline) 112 % of control; (dose: 25.0 mg/kg/injection, schedule: Q01DX001 (ip), vehicle: saline) 89 % of control and 105 % of control; under setting [2], 87 % of control and 113 % of control; (dose: 50.0 mg/kg/injection, schedule: Q01DX001 (ip), vehicle: saline) 89 % of control; (dose: 60.0 mg/kg/injection, schedule: Q04DX003 (ip), vehicle: water) 114 % of control. Moreover, the T/C by setting is: (dose: 75.0 mg/kg/injection, schedule: Q01DX009 (ip), vehicle: saline) 103 % of control and 238 % of control; under setting [3], 92 % of control and 97 % of control (2×); (dose: 240.02 mg/kg/injection, schedule: Q04DX003 (ip), vehicle: water) 222 % of control; (dose: 500.0 mg/kg/injection, schedule: Q01DX001 (ip), vehicle: saline) 120 % of control.
As to `CC(=O)OCC(=O)[C@@]1(O)CC[C@H]2[C@@H]3C[C@H](F)C4=CC(=O)CC[C@]4(C)[C@H]3C(=O)C[C@@]21C`, the T/C (dose: 50.0 mg/kg/injection, schedule: Q04DX003 (ip), vehicle: saline with Tween-80) was 103 % of control; the T/C under setting [4] is 90 % of control; the T/C under setting [5] is 111 % of control.
As to `NC(=O)C(Br)CBr` (stereo not drawn), the T/C runs as follows: under setting [2], 100 % of control; (dose: 50.0 mg/kg/injection, schedule: Q04DX003 (ip), vehicle: saline) 122 % of control; under setting [3], 108 % of control; (dose: 100.0 mg/kg/injection, schedule: Q04DX003 (ip), vehicle: saline) 89 % of control; under setting [6], 101 % of control.
As for `Cc1c2oc3c(C)ccc(C(=O)N[C@@H]4C(=O)N[C@H](C(C)C)C(=O)N5CCC[C@H]5C(=O)N(C)CC(=O)N(C)[C@@H](C(C)C)C(=O)O[C@H]4C)c3nc-2c(C(=O)N[C@@H]2C(=O)N[C@H](C(C)C)C(=O)N3CCC[C@H]3C(=O)N(C)CC(=O)N(C)[C@@H](C(C)C)C(=O)O[C@H]2C)c(N)c1=O` (I: [aThr][dV]P[Sar][NMeV] / II: [aThr][dV]P[Sar][NMeV]; ester I:1-I:C, II:1-II:C; linker I:N-II:N via Actinocin(9to1)), the T/C was 110 % of control (dose: 0.05 mg/kg/injection, schedule: Q01DX001 (ip), vehicle: saline); 117 % of control (dose: 0.1 mg/kg/injection, schedule: Q01DX001 (ip), vehicle: saline); 112 % of control (dose: 0.2 mg/kg/injection, schedule: Q01DX001 (ip), vehicle: saline); 94 % of control (dose: 1.0 micrograms/kg/injection, schedule: Q01DX015 (ip), vehicle: saline); 108 % of control (dose: 2.0 micrograms/kg/injection, schedule: Q01DX015 (ip), vehicle: saline); 105 % of control (dose: 4.0 micrograms/kg/injection, schedule: Q01DX015 (ip), vehicle: saline). Further, the T/C was 109 % of control (dose: 5.0 micrograms/kg/injection, schedule: Q01DX010 (ip), vehicle: saline); 105 % of control (dose: 6.0 micrograms/kg/injection, schedule: Q01DX015 (ip), vehicle: saline); 111 % of control (dose: 9.0 micrograms/kg/injection, schedule: Q01DX015 (ip), vehicle: saline); 119 % of control (dose: 10.0 micrograms/kg/injection, schedule: Q01DX010 (ip), vehicle: saline); 94 % of control (dose: 13.0 micrograms/kg/injection, schedule: Q01DX015 (ip), vehicle: saline); 119 % of control (dose: 20.0 micrograms/kg/injection, schedule: Q01DX015 (ip), vehicle: saline).
`S=C1SCN(Cc2ccccc2)CN1Cc1ccccc1`: the T/C by setting is: under setting [3], 111 % of control; under setting [6], 91 % of control; under setting [7], 91 % of control.
Take `CCOC(=O)CCCSCCCC(=O)OCC`: the T/C was 89 % of control under setting [6] and 95 % of control under setting [7].
Consider `CCN(CC)C(N)=S`, for which the T/C is 105 % of control under setting [1]; 100 % of control under setting [8]; 105 % of control under setting [9]; 103 % of control under setting [10]; 110 % of control under setting [11]; 107 % of control under setting [12].
On to `CC[N+]1=NC2CCCC(C2)C1` (stereo not drawn), for which the T/C under setting [3] is 101 % of control and the T/C under setting [6] is 106 % of control.
`COc1cc(N)c2ncccc2c1SC`: the T/C is 102 % of control under setting [6] and 106 % of control under setting [7].
In the case of `Nc1ccccc1SC1CC(=O)N(c2ccccc2)C1=O` (stereo not drawn), the T/C is 94 % of control under setting [4]; 94 % of control under setting [5]; 94 % of control (dose: 400.0 mg/kg/injection, schedule: Q01DX001 (ip), vehicle: saline with Tween-80).
In the case of `Cn1c(O)c(C=N)c(=O)[nH]c1=O`, the T/C was 113 % of control under setting [3]; 104 % of control under setting [8]; 94 % of control under setting [6]; 93 % of control under setting [10]; 113 % of control under setting [7]; 97 % of control under setting [12].
On to `OCC#CC#CCO`, for which the T/C is, setting by setting: under setting [3], 100 % of control; under setting [6], 92 % of control.
Regarding `CCOc1ccc2nc(N)sc2c1`, the T/C under setting [1] is 89 % of control and the T/C under setting [9] was 92 % of control.
As to `S=c1[nH]nc(NC2CCCCC2)s1`, the T/C is, setting by setting: under setting [1], 100 % of control; under setting [8], 100 % of control; under setting [9], 90 % of control; under setting [10], 90 % of control; under setting [11], 87 % of control.
